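Step 1: Grow cells in 96-well plates. Step 2: Expose to compound for 48 hours at 5 concentrations. Step 3: Interpolate endpoints linearly; if unreached, use highest concentration. TGI: concentration producing complete growth inhibition.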
Legend:
Assay in all cases: NCI-60 cell line screen, 48 h
ACHN renal = system: ACHN renal
MDA-MB-435 = system: MDA-MB-435
COLO 205 colon = system: COLO 205 colon
SR leukemia = system: SR leukemia
SK-MEL-28 melanoma = system: SK-MEL-28 melanoma
K-562 leukemia = system: K-562 leukemia
CAKI-1 renal = system: CAKI-1 renal
MDA-MB-231 breast = system: MDA-MB-231 breast
U251 CNS = system: U251 CNS
HT29 colon = system: HT29 colon
SNB-75 CNS = system: SNB-75 CNS
HS 578T breast = system: HS 578T breast
SK-MEL-5 melanoma = system: SK-MEL-5 melanoma
SK-MEL-2 melanoma = system: SK-MEL-2 melanoma

Structure (SMILES) | TGI (ACHN renal) [µM] | TGI (MDA-MB-435) [µM] | TGI (COLO 205 colon) [µM] | TGI (SR leukemia) [µM] | TGI (SK-MEL-28 melanoma) [µM] | TGI (K-562 leukemia) [µM] | TGI (CAKI-1 renal) [µM] | TGI (MDA-MB-231 breast) [µM] | TGI (U251 CNS) [µM] | TGI (HT29 colon) [µM] | TGI (SNB-75 CNS) [µM] | TGI (HS 578T breast) [µM] | TGI (SK-MEL-5 melanoma) [µM] | TGI (SK-MEL-2 melanoma) [µM]
CCOC(=O)c1c(SC(=O)c2ccc(C(C)(C)C)cc2)n(-c2ccccc2)c(=S)n(-c2ccccc2)c1=O | > 100 | > 100 | > 100 | > 100 | > 100 | > 100 | > 100 | > 100 | > 100 | > 100 | > 100 | > 100 |  | 
C=C1C[C@@H]2CC[C@@]34CC5O[C@H]6C(O[C@H]7CC[C@H](CC(=O)O[C@@H]8[C@@H](C)[C@@H]9O[C@@H]%10C[C@]%11(C[C@@H]%12O[C@]%13(C[C@H](C)[C@@H]%14O[C@@H]%15CC(C(O)CO)O[C@@H]%15C[C@@H]%14O%13)C[C@H](C)[C@@H]%12O%11)O[C@@H]%10C[C@@H]9O[C@H]8CC8O[C@@H](CC[C@@H]1O2)C[C@@H](C)C8(O)CO)O[C@@H]7[C@@H]6O3)[C@H]5O4 (stereo not given in full) | > 1 | > 1 | > 1 | > 1 | > 1 | > 1 | > 1 | > 1 | > 1 |  | > 1 | > 0.815 | > 1 | > 1
N#CC(C#N)=C1C(=Cc2ccc(OCCCCCCCCCCSSCCCCCCCCCCOc3ccc(C=C4C(=C(C#N)C#N)c5ccccc5C4=C(C#N)C#N)cc3)cc2)C(=C(C#N)C#N)c2ccccc21 | > 100 | > 100 |  | 68 | 52.4 | 60.4 | 71.2 | > 100 | 46.8 | 34.1 | > 100 | 52.4 | 52.3 | 64
S=C(N1CCN(c2ccc(Cl)c(Cl)c2)CC1)N1CCN(c2ccc(Cl)c(Cl)c2)CC1 | 27.4 | 29 | 22.4 | 5.82 | 28.7 | 26.7 | 20.4 | 21.2 | 28 | 21.3 |  | 26 | 28.4 | 41.7
Cc1c(-c2ccc(O)cc2)n(CCCCCCNCCOC(=O)NCCCc2ccc(N(CCCl)CCCl)cc2)c2ccc(O)cc12 | 14.1 | 3.21 | 7.57 | 3.18 | 13.8 |  | 25.7 | 3.38 | 13.5 | 3.09 | 14.1 | 7.49 | 4.06 | 23.8
CN(C)CCCN1c2ccc([N+](=O)[O-])cc2CCc2cccc([N+](=O)[O-])c21 | 31.5 | 27.7 | 28.6 | > 100 | 30.1 | 52 |  | 26.1 | 29.3 | 32.5 | 26.5 | 31.7 | 30.2 | 33.5
Cc1ccc(N=N/C(=N/NC(=O)c2cc(Cl)ccc2O)c2ccc(N(CCC#N)CCC#N)cc2C)cc1 | 70.4 | > 100 | 44.2 | > 100 |  | > 100 | > 100 | > 100 | > 100 | 60.6 | 86.8 | 46.4 | 36.4 | 68.4
COc1cccc(-c2nc3ccccc3c(=O)[nH]2)c1 | 37.4 | 28.1 | > 100 | > 100 | 96.6 | > 100 | 37.1 | 58.9 | 44.7 | 55.5 |  | 47.9 | 65.8 | > 100
COC(=O)NC(Nc1ccccn1)(C(F)(F)F)C(F)(F)F | > 100 | > 100 |  | > 100 | > 100 | > 100 | > 100 | > 100 | > 100 | > 100 | > 100 | > 100 | > 100 | > 100
COc1cc(NC(C)c2ccc3c(c2)OCCO3)cc(OC)c1OC (stereo not given) | > 100 | 32 | 71.8 | > 100 | > 100 | > 100 | > 100 | > 100 | 94.1 | > 100 |  | 52.1 | 76.3 | 79.8
CN(C)CCNc1ccc([N+](=O)[O-])c2sc3ccccc3c(=O)c12 | 13.2 | 27.4 | 14.3 | 22.9 | 21.5 | > 100 |  | 9.39 | > 100 | 32.1 | 35.6 | 38.8 | 20.6 | 27.9
CN1Cc2ccccc2S(=O)(=O)n2cccc2C1=O | > 100 | > 100 | > 100 | > 100 | > 100 | > 100 | > 100 | > 100 | > 100 |  | > 100 | > 100 | > 100 | > 100

From PubChem BioAssay (NCI)
